Read-outs that look alike come from different tables or passages of the source. Square brackets hold non-standard residues; d marks the D form. Peptide text beside a SMILES is read from it.
Columns and labels:
[1] = tested on: Enterobacter cloacae clinical strains; assay type: cell-based; set-up: Minimum inhibitory concentration: unit: μg/ml; settings: microdilution, Muller Hinton broth-cation adjusted, 0.02% BSA, 0.2% acetic acid
How it was run: (§1)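 MIC = lowest concentration without visual growth after 20–24 h at 37° C. Microbroth dilution, 5.0×10^5 cfu/ml, 0.125–128 μg/ml range; MH broth for bacteria, potato dextrose broth for yeasts.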

[2] = tested on: Proteus mirabilis clinical strains; assay type: cell-based; set-up: Minimum inhibitory concentration: unit: μg/ml; settings: microdilution, Muller Hinton broth-cation adjusted, 0.02% BSA, 0.2% acetic acid
How it was run: as §1

[3] = tested on: Serratia marcescens clinical strains; assay type: cell-based; set-up: Minimum inhibitory concentration: unit: μg/ml; settings: microdilution, Muller Hinton broth-cation adjusted, 0.02% BSA, 0.2% acetic acid
How it was run: as §1

[4] = tested on: Staphylococcus aureus clinical strains; assay type: cell-based; set-up: Minimum inhibitory concentration: unit: μg/ml; settings: microdilution, Muller Hinton broth-cation adjusted, 0.02% BSA, 0.2% acetic acid
How it was run: as §1

[5] = tested on: Streptococcus pneumoniae clinical strains; assay type: cell-based; set-up: Minimum inhibitory concentration: unit: μg/ml; settings: microdilution, Muller Hinton broth-cation adjusted, 0.02% BSA, 0.2% acetic acid
How it was run: as §1

[6] = tested on: Candida albicans clinical strains; test: MIC, clinical yeast strains; assay type: cell-based; set-up: unit: μg/ml
How it was run: as §1

[7] = tested on: C. glabrata clinical strains; test: MIC, clinical yeast strains; assay type: cell-based, Candida glabrata; set-up: unit: µg/ml
How it was run: as §1

[8] = tested on: C. parapsilosis clinical strains; test: MIC, clinical yeast strains; assay type: cell-based, Candida parapsilosis; set-up: unit: µg/ml
How it was run: as §1

[9] = tested on: C. quillermondiae clinical strains; test: MIC, clinical yeast strains; assay type: cell-based, Candida quillermondiae; set-up: unit: μg/ml; settings: C. quillermondiae clinical yeast strain 1
How it was run: as §1

[10] = tested on: Escherichia coli clinical strains; assay type: cell-based; settings: microdilution, Muller Hinton broth-cation adjusted, 0.02% BSA, 0.2% acetic acid
How it was run: as §1

[11] = tested on: Klebsiella pneumoniae clinical strains; assay type: cell-based; settings: microdilution, Muller Hinton broth-cation adjusted, 0.02% BSA, 0.2% acetic acid
How it was run: as §1

[12] = tested on: Pseudomonas aeruginosa clinical strains; assay type: cell-based; settings: microdilution, Muller Hinton broth-cation adjusted, 0.02% BSA, 0.2% acetic acid
How it was run: as §1

For `CC(C)C[C@@H](NC(=O)[C@H](N)CCCNC(=N)N)C(=O)N[C@H](CCCCN)C(=O)N[C@H](Cc1c[nH]c2ccccc12)C(=O)N[C@H](Cc1ccccc1)C(=O)N[C@H](Cc1c[nH]c2ccccc12)C(=O)N[C@H](CC(C)C)C(=O)N[C@H](Cc1ccccc1)C(=O)N[C@H](CCCNC(=N)N)C(=O)N[C@H](CCCCN)C(=O)N[C@H](CCCNC(=N)N)C(=O)O` [Chain307D] (H-[dR][dL][dK][dW][dF][dW][dL][dF][dR][dK][dR]-OH), which Minimum inhibitory concentration ([1]; Enterobacter cloacae clinical strain 1) is on record?
Its Minimum inhibitory concentration is 4.

And the Minimum inhibitory concentration ([1]; Enterobacter cloacae clinical strain 2)?
Its Minimum inhibitory concentration is 8.

What about the Minimum inhibitory concentration ([1]; Enterobacter cloacae clinical strain 3) of the same compound?
Its Minimum inhibitory concentration is 4.

What about the Minimum inhibitory concentration ([1]; Enterobacter cloacae clinical strain 4) of the same compound?
Its Minimum inhibitory concentration is 4.

And the Minimum inhibitory concentration ([1]; Enterobacter cloacae clinical strain 5)?
Its Minimum inhibitory concentration is 4.

What about the Minimum inhibitory concentration ([2]; Proteus mirabilis clinical strain 1) of the same compound?
Its Minimum inhibitory concentration is greater than 128.

What about the Minimum inhibitory concentration ([2]; Proteus mirabilis clinical strain 2) of the same compound?
Its Minimum inhibitory concentration is 128.

What about the Minimum inhibitory concentration ([2]; Proteus mirabilis clinical strain 3) of the same compound?
The Minimum inhibitory concentration was 128.

And the Minimum inhibitory concentration ([2]; Proteus mirabilis clinical strain 4)?
Its Minimum inhibitory concentration is greater than 128.

And the Minimum inhibitory concentration ([2]; Proteus mirabilis clinical strain 5)?
The Minimum inhibitory concentration was greater than 128.

What about the Minimum inhibitory concentration ([3]; Serratia marcescens clinical strain 1) of the same compound?
The Minimum inhibitory concentration was greater than 128.

What about the Minimum inhibitory concentration ([3]; Serratia marcescens clinical strain 2) of the same compound?
Its Minimum inhibitory concentration is greater than 128.

And the Minimum inhibitory concentration ([3]; Serratia marcescens clinical strain 3)?
The Minimum inhibitory concentration was 128.

And the Minimum inhibitory concentration ([3]; Serratia marcescens clinical strain 4)?
The Minimum inhibitory concentration was greater than 128.

What about the Minimum inhibitory concentration ([3]; Serratia marcescens clinical strain 5) of the same compound?
Its Minimum inhibitory concentration is greater than 128.

And the Minimum inhibitory concentration ([4]; Staphylococcus aureus clinical strain 1)?
The Minimum inhibitory concentration was 2.

And the Minimum inhibitory concentration ([4]; Staphylococcus aureus clinical strain 2)?
Its Minimum inhibitory concentration is 2.

What about the Minimum inhibitory concentration ([4]; Staphylococcus aureus clinical strain 3) of the same compound?
The Minimum inhibitory concentration was 2.

And the Minimum inhibitory concentration ([4]; Staphylococcus aureus clinical strain 4)?
Its Minimum inhibitory concentration is 2.

And the Minimum inhibitory concentration ([4]; Staphylococcus aureus clinical strain 5)?
Its Minimum inhibitory concentration is 2.

And the Minimum inhibitory concentration ([5]; Streptococcus pneumoniae clinical strain 1)?
The Minimum inhibitory concentration was 4.

And the Minimum inhibitory concentration ([5]; Streptococcus pneumoniae clinical strain 2)?
Its Minimum inhibitory concentration is 4.

What about the Minimum inhibitory concentration ([5]; Streptococcus pneumoniae clinical strain 3) of the same compound?
Its Minimum inhibitory concentration is 4.

What about the Minimum inhibitory concentration ([5]; Streptococcus pneumoniae clinical strain 4) of the same compound?
Its Minimum inhibitory concentration is 2.

And the Minimum inhibitory concentration ([5]; Streptococcus pneumoniae clinical strain 5)?
Its Minimum inhibitory concentration is 2.

And the Minimum inhibitory concentration ([6]; Candida albicans clinical yeast strain 1)?
The Minimum inhibitory concentration was 16.

What about the Minimum inhibitory concentration ([6]; Candida albicans clinical yeast strain 2) of the same compound?
The Minimum inhibitory concentration was 16.

What about the Minimum inhibitory concentration ([6]; Candida albicans clinical yeast strain 3) of the same compound?
The Minimum inhibitory concentration was 16.

What about the Minimum inhibitory concentration ([6]; Candida albicans clinical yeast strain 4) of the same compound?
The Minimum inhibitory concentration was 16.

And the Minimum inhibitory concentration ([6]; Candida albicans clinical yeast strain 5)?
The Minimum inhibitory concentration was 16.

And the Minimum inhibitory concentration ([7]; C. glabrata clinical yeast strain 1)?
The Minimum inhibitory concentration was 8.

What about the Minimum inhibitory concentration ([7]; C. glabrata clinical yeast strain 2) of the same compound?
Its Minimum inhibitory concentration is 16.

What about the Minimum inhibitory concentration ([7]; C. glabrata clinical yeast strain 3) of the same compound?
The Minimum inhibitory concentration was 8.

And the Minimum inhibitory concentration ([7]; C. glabrata clinical yeast strain 4)?
The Minimum inhibitory concentration was 16.

And the Minimum inhibitory concentration ([8]; C. parapsilosis clinical yeast strain 1)?
Its Minimum inhibitory concentration is 16.

And the Minimum inhibitory concentration ([8]; C. parapsilosis clinical yeast strain 2)?
Its Minimum inhibitory concentration is 8.

What about the Minimum inhibitory concentration ([8]; C. parapsilosis clinical yeast strain 3) of the same compound?
Its Minimum inhibitory concentration is 8.

And the Minimum inhibitory concentration ([8]; C. parapsilosis clinical yeast strain 4)?
Its Minimum inhibitory concentration is 8.

And the Minimum inhibitory concentration [9]?
The Minimum inhibitory concentration was 4.

And the Minimum inhibitory concentration ([10]; Escherichia coli clinical strain 1)?
Its Minimum inhibitory concentration is 4.

And the Minimum inhibitory concentration ([10]; Escherichia coli clinical strain 2)?
Its Minimum inhibitory concentration is 4.

And the Minimum inhibitory concentration ([10]; Escherichia coli clinical strain 3)?
Its Minimum inhibitory concentration is 4.

What about the Minimum inhibitory concentration ([10]; Escherichia coli clinical strain 4) of the same compound?
The Minimum inhibitory concentration was 2.

And the Minimum inhibitory concentration ([10]; Escherichia coli clinical strain 5)?
Its Minimum inhibitory concentration is 4.

And the Minimum inhibitory concentration ([11]; Klebsiella pneumoniae clinical strain 1)?
Its Minimum inhibitory concentration is 8.

What about the Minimum inhibitory concentration ([11]; Klebsiella pneumoniae clinical strain 2) of the same compound?
The Minimum inhibitory concentration was 8.

What about the Minimum inhibitory concentration ([11]; Klebsiella pneumoniae clinical strain 3) of the same compound?
The Minimum inhibitory concentration was 16.

What about the Minimum inhibitory concentration ([11]; Klebsiella pneumoniae clinical strain 4) of the same compound?
Its Minimum inhibitory concentration is 16.

And the Minimum inhibitory concentration ([11]; Klebsiella pneumoniae clinical strain 5)?
Its Minimum inhibitory concentration is 4.

And the Minimum inhibitory concentration ([12]; Pseudomonas aeruginosa clinical strain 1)?
The Minimum inhibitory concentration was 16.

And the Minimum inhibitory concentration ([12]; Pseudomonas aeruginosa clinical strain 2)?
Its Minimum inhibitory concentration is 16.

What about the Minimum inhibitory concentration ([12]; Pseudomonas aeruginosa clinical strain 3) of the same compound?
The Minimum inhibitory concentration was 16.

And the Minimum inhibitory concentration ([12]; Pseudomonas aeruginosa clinical strain 4)?
The Minimum inhibitory concentration was 8.

And the Minimum inhibitory concentration ([12]; Pseudomonas aeruginosa clinical strain 5)?
Its Minimum inhibitory concentration is 8.

From US10457709B2, “Antimicrobial peptides, their variants and uses” (priority 2015, dated 2019)
